Assay results: patent US20250215029A1 (Recludix Pharma, Inc., priority 2022, published 2025)
Read-outs that look alike come from different tables or passages of the source.

Key:
[1] = target: T1, Recombinant STAT3 protein (STAT3 (G127-I722)) (Homo sapiens, UniProt P40763); test: STAT3 Fluorescence Polarization (FP) Assay; format: binding; conditions: probe 5-FAM-GpYLPQTV-NH2 2 nM, 45-minute incubation
T1 construct: Recombinant STAT3 protein (STAT3 (G127-I722))
Procedure, shortened: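 Read-out is fluorescence polarization (mP) after 45 min at room temperature, with IC50 fitted by nonlinear regression against log compound concentration. Mixture: 25 nM STAT3 (G127-I722), 2 nM 5-FAM-GpYLPQTV-NH2 phosphopeptide, 10 mM HEPES pH 7.4 buffer, 1% DMSO.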

[2] = target: T2, Recombinant STAT6 protein (STAT6 (W123-T658)) (Homo sapiens, UniProt P42226); test: STAT6 Fluorescence Polarization (FP) Assay; format: binding; conditions: probe 5-FAM-Ap[…]-NH2 2 nM, 45-minute incubation
T2 construct: Recombinant STAT6 protein (STAT6 (W123-T658))
T2 sequence (P42226 123-658): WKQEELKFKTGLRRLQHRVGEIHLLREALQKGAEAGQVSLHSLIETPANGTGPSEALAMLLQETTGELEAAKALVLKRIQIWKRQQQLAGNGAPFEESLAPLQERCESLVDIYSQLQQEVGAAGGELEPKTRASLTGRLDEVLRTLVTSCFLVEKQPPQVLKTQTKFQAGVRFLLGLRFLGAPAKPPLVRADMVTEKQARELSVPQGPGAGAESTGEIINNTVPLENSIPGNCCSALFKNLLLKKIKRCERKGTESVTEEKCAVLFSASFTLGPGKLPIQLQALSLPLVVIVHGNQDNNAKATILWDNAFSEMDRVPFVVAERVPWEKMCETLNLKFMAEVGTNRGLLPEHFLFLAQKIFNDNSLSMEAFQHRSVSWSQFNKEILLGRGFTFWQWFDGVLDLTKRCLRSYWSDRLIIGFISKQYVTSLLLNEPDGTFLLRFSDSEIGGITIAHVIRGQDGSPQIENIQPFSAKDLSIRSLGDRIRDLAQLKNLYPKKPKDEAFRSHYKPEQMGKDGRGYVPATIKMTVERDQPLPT
Procedure, shortened: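 Displacement of a fluorescent phosphotyrosine peptide (2 nM) from 250 nM STAT6 (W123-T658) is measured by polarization after a 45-minute room-temperature incubation. Compounds are titrated serially at 1% DMSO, and IC50 values derive from regression of mP on log concentration.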

[3] = STAT3 (G127-I722) 25 nM, read-out: STAT3 (FP assay IC50 class)
[4] = STAT6 (W123-T658) 250 nM, read-out: STAT6 (FP assay IC50 class)

T1 sequence (P40763 127-722): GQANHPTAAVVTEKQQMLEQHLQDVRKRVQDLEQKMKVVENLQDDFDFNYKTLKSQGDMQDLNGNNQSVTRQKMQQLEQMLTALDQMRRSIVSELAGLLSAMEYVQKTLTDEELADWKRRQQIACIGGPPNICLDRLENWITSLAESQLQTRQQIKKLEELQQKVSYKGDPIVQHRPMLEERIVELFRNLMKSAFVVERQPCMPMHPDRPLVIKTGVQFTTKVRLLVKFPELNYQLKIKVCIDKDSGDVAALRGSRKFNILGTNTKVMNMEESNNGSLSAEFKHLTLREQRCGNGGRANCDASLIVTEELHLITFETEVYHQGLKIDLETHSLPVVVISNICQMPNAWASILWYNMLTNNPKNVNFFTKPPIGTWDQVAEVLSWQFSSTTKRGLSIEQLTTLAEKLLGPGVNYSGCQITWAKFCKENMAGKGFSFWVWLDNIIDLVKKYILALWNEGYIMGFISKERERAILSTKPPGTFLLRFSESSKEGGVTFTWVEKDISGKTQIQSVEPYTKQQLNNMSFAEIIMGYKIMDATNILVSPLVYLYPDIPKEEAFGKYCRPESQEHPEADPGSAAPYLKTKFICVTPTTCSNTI

Row | Compound | IC50 [1, 3] [nM] | IC50 [2, 4] [nM] | IC50 ([1]; STAT3 25 nM, read-out: STAT3 (FP assay IC50)) [nM] | IC50 ([2]; STAT6 250 nM, read-out: STAT6 (FP assay IC50)) [nM]
1 | O=C(N[C@H]1CCCC[C@H]2CC[C@@H](C(=O)N3CC(c4cc[nH]c(=O)c4)CC34CC4)N2C1=O)c1ccc2ccc(C(F)(F)P(=O)(O)O)cc2c1 (stereo partly drawn) [Compound 877, (difluoro(7-(((3S,6S,10aS)-5-oxo-3-(6-(2-oxo-1,2-dihydropyridin-4-yl)-4-azaspiro[2.4]heptane-4-carbonyl)decahydropyrrolo[1,2-a]azocin-6-yl)carbamoyl)naphthalen-2-yl)methyl) phosphonic acid] | 1000 to 10000 | ≤ 300 |  | 
2 | O=C(N[C@H]1CCCC[C@H]2CC[C@@H](C(=O)N3CC(c4cnccc4-c4ccccc4)C3)N2C1=O)c1cc2cc(C(F)(F)P(=O)(O)O)ccc2s1 [Compound 516, (difluoro(2-(((3S,6S,10aS)-5-oxo-3-(3-(4-phenylpyridin-3-yl)azetidine-1-carbonyl)decahydropyrrolo[1,2-a]azocin-6-yl)carbamoyl)benzo[b]thiophen-5-yl)methyl)phosphonic acid] | < 100 | 300 to 3000 |  | 
3 | Cn1ncc(F)c1C1CN(C(=O)[C@@H]2CC[C@@H]3CCC[C@H](NC(=O)c4cc5cc(C(F)P(=O)(O)O)ccc5s4)C(=O)N32)C1 (stereo partly drawn) [Compound 751, (fluoro(2-(((3S,6S,9aS)-3-(3-(4-fluoro-1-methyl-1H-pyrazol-5-yl)azetidine-1-carbonyl)-5-oxooctahydro-1H-pyrrolo[1,2-a]azepin-6-yl)carbamoyl)benzo [b]thiophen-5-yl)methyl) phosphonic acid] | 100 to 1000 | 3000 to 30000 |  | 
4 | O=C(N[C@H]1CC2(CC[C@H]3CC[C@@H](C(=O)N4CC(c5cccnc5)C4)N3C1=O)CC2)c1cc2cc(CP(=O)(O)O)ccc2s1 [Compound 216, ((2-(((3′S,6′S,10a′S)-5′-oxo-3′-(3-(pyridin-3-yl)azetidine-1-carbonyl)octahydro-5′H-spiro[cyclopropane-1,8′-pyrrolo[1,2-a]azocin]-6′-yl)carbamoyl)benzo[b]thiophen-5-yl)methyl)phosphonic acid] | 100 to 1000 | 3000 to 30000 |  | 

Results, then the compound that gave them:

Row | IC50 [1, 3] [nM] | IC50 [2, 4] [nM] | IC50 ([1]; STAT3 25 nM, read-out: STAT3 (FP assay IC50)) [nM] | IC50 ([2]; STAT6 250 nM, read-out: STAT6 (FP assay IC50)) [nM] | Compound
5 | 1000 to 10000 | 3000 to 30000 |  |  | O=C(N[C@H]1CCCC[C@H]2CC[C@@H](C(=O)N3CC(c4ccccc4)CC34CC4)N2C1=O)c1ccc2cnc(CP(=O)(O)O)cc2c1 (stereo partly drawn) [Compound 570, ((6-(((3S,6S,10aS)-5-oxo-3-(6-phenyl-4-azaspiro[2.4]heptane-4-carbonyl)decahydropyrrolo[1,2-a]azocin-6-yl)carbamoyl)isoquinolin-3-yl)methyl)phosphonic acid]
6 | 1000 to 10000 | ≤ 300 |  |  | C[C@H]1C[C@H]2CC[C@@H](C(=O)N3C[C@H](c4ccccc4)[C@@H](C#N)C34CC4)N2C(=O)[C@@H](NC(=O)c2cc3cc([C@H](F)P(=O)(O)O)ccc3s2)C1 [Compound 849, ((R)-(2-(((3S,6S,8R,9aR)-3-((6S,7R)-7-cyano-6-phenyl-4-azaspiro[2.4]heptane-4-carbonyl)-8-methyl-5-oxooctahydro-1H-pyrrolo[1,2-a]azepin-6-yl)carbamoyl)benzo [b]thiophen-5-yl)fluoromethyl) phosphonic acid]
7 | 1000 to 10000 | 300 to 3000 |  |  | O=C(N[C@H]1CCCC[C@H]2CC[C@@H](C(=O)NC3CN(C(=O)OC4CC4)C3)N2C1=O)c1cc2cc(C(F)P(=O)(O)O)ccc2s1 (stereo partly drawn) [Compound 528, ((2-(((3S,6S,10aS)-3-((1-(cyclopropoxycarbonyl)azetidin-3-yl)carbamoyl)-5-oxodecahydropyrrolo[1,2-a]azocin-6-yl)carbamoyl)benzo[b]thiophen-5-yl)fluoromethyl)phosphonic acid]
8 |  |  | 1000 to 10000 | 300 to 3000 | N#Cc1[nH]nc2ccc(NC(=O)[C@@H]3CC[C@@H]4CCCC[C@H](NC(=O)c5cc6cc(C(F)(F)P(=O)(O)O)ccc6s5)C(=O)N43)cc12 [Compound 52, ((2-(((3S,6S,10aS)-3-((3-cyano-2H-indazol-5-yl)carbamoyl)-5-oxodecahydropyrrolo [1,2-a]azocin-6-yl)carbamoyl)benzo[b]thiophen-5-yl)difluoromethyl) phosphonic acid]
